According to patent US10173991B2, “Sulfone amide linked benzothiazole inhibitors of endothelial lipase” (BRISTOL-MYERS SQUIBB COMPANY, priority 2014, dated 2019):

The compounds below were run against Endothelial lipase (EL) (Homo sapiens (Human), UniProt Q9Y5X9) (assay: Endothelial lipase (EL) enzymatic assay with fluorescent substrate A10070 in DMPG vesicles).
Type: biochemical
Outline: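 Vesicles prepared: A10070 dried with DMPG, resuspended in HEPES pH 8.0/NaCl/EDTA, sonicated on ice. Enzyme incubated with compound 30 min at 37° C. Reaction started with 1:10 diluted vesicles. Fluorescence (490/530 nm) followed 60 min; slope from 300–900 secs gives rate.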

Endothelial lipase (EL), sequence (Q9Y5X9 21-500): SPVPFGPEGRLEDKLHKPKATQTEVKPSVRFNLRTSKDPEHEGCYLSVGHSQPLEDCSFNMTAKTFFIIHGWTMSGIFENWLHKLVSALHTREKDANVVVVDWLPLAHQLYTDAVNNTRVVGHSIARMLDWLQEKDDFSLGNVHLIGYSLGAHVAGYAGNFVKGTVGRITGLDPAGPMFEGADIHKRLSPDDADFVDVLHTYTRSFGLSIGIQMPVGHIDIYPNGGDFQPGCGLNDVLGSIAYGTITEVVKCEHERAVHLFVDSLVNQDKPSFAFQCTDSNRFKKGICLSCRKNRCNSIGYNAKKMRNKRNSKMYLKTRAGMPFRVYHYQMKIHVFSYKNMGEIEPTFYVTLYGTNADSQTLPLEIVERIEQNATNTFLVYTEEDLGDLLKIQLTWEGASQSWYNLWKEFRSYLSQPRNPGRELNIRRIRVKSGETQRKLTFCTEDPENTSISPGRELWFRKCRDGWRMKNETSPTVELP

SMILES | IC50 [µM]
COCCS(=O)(=O)C(C(=O)NCC(=O)NC1CC1)c1nc2cc(-c3ccc4[nH]c(=O)ccc4c3)c(F)cc2s1 (centres unmarked) [Example 347, N-[(cyclopropyl-carbamoyl)methyl]-2-[6-fluoro-5-(2-oxo-1,2-dihydroquinolin-6-yl)-1,3-benzothiazol-2-yl]-2-(2-methoxyethane-sulfonyl)acetamide] | 0.018
CC(C)S(=O)(=O)C(C(=O)NCC(=O)NC1CC1)c1nc2c(F)cc(-c3ccc4cnn(C)c4c3)cc2s1 (centres unmarked) [Example 281, N-[(cyclopropyl-carbamoyl)methyl]-2-[4-fluoro-6-(1-methyl-1H-indazol-6-yl)-1,3-benzothiazol-2-yl]-2-(propane-2-sulfonyl)acetamide] | 0.009
COCCS(=O)(=O)C(C(=O)NCC(=O)NC1CC1)c1nc2cc(-c3cnc(F)c(C)c3)ccc2s1 (centres unmarked) [Example 78, N-[(cyclopropyl-carbamoyl)methyl]-2-[5-(6-fluoro-5-methylpyridin-3-yl)-1,3-benzothiazol-2-yl]-2-(2-methoxyethane-sulfonyl) acetamide] | 0.038
COCCS(=O)(=O)C(C(=O)NCC(=O)NC1CC1)c1nc2cc(-c3cccnc3F)ccc2s1 (centres unmarked) [Example 82, N-[(cyclopropyl-carbamoyl)methyl]-2-[5-(2-fluoropyridin-3-yl)-1,3-benzothiazol-2-yl]-2-(2-methoxyethane-sulfonyl) acetamide] | 0.061
CC(C)CS(=O)(=O)C(C(=O)NCC(=O)NC1CC1)c1nc2cc(F)c(-c3ccc(NC(=O)OCc4ccccc4)cc3)cc2s1 (centres unmarked) [Example 49, benzyl N-{4-[2-({[(cyclopropyl-carbamoyl)methyl]carbamoyl}(2-methylpropane-sulfonyl)methyl)-5-fluoro-1,3-benzothiazol-6-yl]phenyl}carbamate] | 0.003
O=C(CNC(=O)C(c1nc2cc(F)c(-c3ccc(=O)n(Cc4ccccc4)c3)cc2s1)S(=O)(=O)CCC(F)(F)F)NC1CC1 (centres unmarked) [Example 592, 2-[6-(1-benzyl-6-oxo-1,6-dihydropyridin-3-yl)-5-fluoro-1,3-benzothiazol-2-yl]-N-[(cyclopropyl-carbamoyl)methyl]-2-(3,3,3-trifluoropropane-sulfonyl)acetamide] | 0.005
O=C(CNC(=O)C(c1nc2cc(F)c(-c3cncnc3)cc2s1)S(=O)(=O)c1cccc(-c2cncnc2)c1)NC1CC1 (centres unmarked) [Example 446, N-[(cyclopropyl-carbamoyl)methyl]-2-[5-fluoro-6-(pyrimidin-5-yl)-1,3-benzothiazol-2-yl]-2-[3-(pyrimidin-5-yl)benzenesulfonyl] acetamide] | 0.078
COCCS(=O)(=O)C(C(=O)NCC(=O)NC1CC1)c1nc2cc(C)c(-c3ccc4c(=O)n(C)ccc4c3)cc2s1 (centres unmarked) [Example 189, N-[(cyclopropyl-carbamoyl)methyl]-2-(2-methoxyethane-sulfonyl)-2-[5-methyl-6-(2-methyl-1-oxo-1,2-dihydro-isoquinolin-6-yl)-1,3-benzothiazol-2-yl]acetamide] | 0.004

Results, then the compound that gave them:

IC50 [µM] | SMILES
0.018 | Cn1nccc1-c1ccc2nc(C(C(=O)NCC(=O)NC3CC3)S(=O)(=O)c3ccc(F)cc3)sc2c1 (centres unmarked) [Example 459, N-[(cyclopropyl-carbamoyl)methyl]-2-(4-fluorobenzene-sulfonyl)-2-[6-(1-methyl-1H-pyrazol-5-yl)-1,3-benzothiazol-2-yl]acetamide]
0.02 | C=CCS(=O)(=O)C(C(=O)NCC(=O)NC1CC1)c1nc2ccc(-c3ccc(F)nc3)cc2s1 (centres unmarked) [Example 59, N-[(cyclopropyl-carbamoyl)methyl]-2-[6-(6-fluoropyridin-3-yl)-1,3-benzothiazol-2-yl]-2-(prop-2-ene-1-sulfonyl) acetamide]
0.023 | COCCS(=O)(=O)C(C(=O)NCC(=O)NC1CC1)c1nc2ccc(-c3ccncc3)cc2s1 (centres unmarked) [Example 289, N-[(cyclopropyl-carbamoyl)methyl]-2-(2-methoxyethane-sulfonyl)-2-[6-(pyridin-4-yl)-1,3-benzothiazol-2-yl] acetamide]
